Data reported in patent US20260021137A1, “COMPOSITIONS FOR TREATING COLITIS AND/OR PREVENTING COLON CANCER” (Purdue Research Foundation, priority 2020, published 2026).
Marks after values point to notes of the source that are not given here.

Columns and labels:
gut microbiota = assay: Gut microbiota analysis by 16S rRNA gene sequencing of feces; type: in vivo, male Balb/c mice; settings: for modulatory effect on gut microbes as δTE and δTE-13′: unpublished data by Liu and Jiang
Description: DNAs from ^˜30-40 mg fecal samples were isolated using FASTDNA™ SPIN kit for isolating DNA from soil (MP Biomedicals, Solon, Ohio). The quality of the DNAs was assessed by NanoDrop One (260/280 OD ratio) (Thermo Fisher Scientific. Weltham, Mass.) and 0.8% agarose gel electrophoresis. The DNAs were stained with Hoechst 33258 dye and quantities were determined using a NanoDrop 3300 fluorospectrometer (Thermo Fisher Scientific. Weltham, Mass.).
DNA templates (10 ng) were used for two-step polymerase chain reactions (PCRs) using Q5 High Fidelity DNA Polymerase to minimize errors (New England Biolabs, Ipswich, Mass.). The first PCR reaction is to amplify the 16S rRNA V3 and V4 region (^˜460 bp), with forward primer (343-357: 5′ TAC CGR AGG CAG CAG 3′), and a reverse primer (804-790: 5′ CTA CCR GGG TAT CTA ATCC 3′). which is based on primer accuracy and coverage of phylogenetic information that has been determined for short sequencing reads. Four degenerate bases were added to the 1st cycle forward primers to maximize detected microbial diversity and improve the base-calling accuracy of sequencing. The second PCR is to tag the amplicons with unique barcodes using 8-bp tagged forward and reverse primers (Illumina) (support.illumina.com). The number of PCR cycles were 15 in the first step and 5 in the second step to minimize formation of PCR artifacts. After each PCR, unincorporated primers and nucleotides were removed from PCR amplicons using Agencourt AMPure XP kit (Beckman Coulter). The PCR products were evaluated by 1.2% agarose gel and quantified using a NanoDrop 3300 fluorospectrometer after staining with Quantifluor dsDNA Assay Kit (Promega, Madison, Wis.). Amplicons from each sample were combined in equimolar quantities for 250 bp pair-end sequencing using a MiSeq system (Illumina, San Diego, Calif.).
The raw sequencing data were processed on the QIIME2 platform. The quality of the sequences was checked and bases with low-quality scores (Q less than 30) were trimmed. After denoising, merging and chimeric-checking using DADA2, amplicon sequence variants (ASVs) were aligned with the SILVA 132 marker gene reference database. After rarefaction, microbial alpha diversities were computed using observed OTUs, Faith Phylogenetic Diversity (PD), Piclou evenness and Shannon indices. For beta diversities, principal coordinate analysis (PCoA) was performed using Unweighted UniFrac, Weighted UniFrac, Jaccard and Bray Curtis distance matrices. Permutational (non-parametric) multivariate statistic (perMANOVA) and permutation analysis of multivariate dispersions (PERMDISP) were used to determine beta diversity significance. To identify differential abundant taxa, we performed analysis of composition of microbiomes (ANCOM) followed by Kruskal-Wallis to determine pair-wise significance. ANCOM takes into account the compositional nature of the dataset and compares absolute abundance in the community. Furthermore, we used linear discriminant analysis (LDA) effect size (LEfSe) to identify microbial taxa that are enriched by the dietary treatments. The cutoff for LDA was set at 3.5. In addition, canonical correspondence analysis (CCA) in PAST3 (Paleontological statistics) was used to determine correlation between relative abundances (at the species level) of gut microbial communities and environmental variables including AOM/DSS treatment, δTE, δTE-13′, ratio of colon length/weight (L/W) and large-size tumors. Significance of the model for the correlations was calculated using a Monte Carlo test with 999 permutations.
Tumor multiplicity and log transformed tumor area were analyzed by Kruskal-Wallis followed by Mann-Whitney test. Vitamin E and metabolites were compared using Student's t test. For cytokine data, Mann-Whitney test was used to compare two groups including AD vs. non-AD, AD vs. δTE, and AD vs. δTE-13′. PAST 3.24 was used for analysis of Spearman correlation among cytokines and multiple factors. […]

[1] = Concentrations of vitamin E forms and metabolites in plasma and feces; type: in vivo
Description: Vitamin E forms were extracted as previously described. Briefly, plasma tocopherols and metabolites were extracted using a mixture of methanol/hexane (1/2,v/v) in the presence of butylated hydroxytoluene (BHT; 0.8 mM) and ascorbate (0.2 mg/ml). […] The Journal of Nutritional Biochemistry. 2009;20:894-900. For fecal samples, ˜30 mg feces were smashed and homogenized in 2 ml methanol with BHT (0.8 mM) and ascorbate (0.2 mg/ml). After brief centrifugation, a 1.4 ml methanol layer was obtained and added with 200 μl of PBS, and extracted by 5 ml hexane. For plasma and fecal samples, the hexane and methanol layer were used for quantification of vitamin E forms and metabolites, respectively.
Different vitamin E forms were separated on a 150×4.6 mm, 5 μm SUPELCOSIL™ LC-18-DB column (Supelco, Bellefonte, PA), and eluted with 95/5 (v/v) methanol/0.1M lithium acetate (final 25 mM, pH 4.75) at a flow rate of 1.3 ml/min. Tocopherols and tocotrienols were monitored by coulometric detection (Model Coulochem II, ESA Inc., Chelmsford, MA) at 300 (upstream) and 500 mV (down-stream electrode) using a Model 5011 analytical cell
The detailed LC-MS/MS method for analyzing vitamin E metabolites has been previously reported. See Jiang Q, Xu T, Huang J, Jannasch AS, Cooper B, Yang C. Analysis of vitamin E metabolites including carboxychromanols and sulfated derivatives using LC/MS/MS. J Lipid Res. 2015;56:2217-25. Briefly, vitamin E metabolites were quantified based on external standards with internal standards for correction of injection and extraction. The LC-MS/MS analysis was done with an Agilent1200 liquid chromatography system coupled to an Agilent 6460 QQQ mass spectrometer equipped with a jet stream electrospray ionization (ESI) source (Santa Clara, CA). The chromatography utilized an Atlantis dC18 column (2.1×150 mm, 3 μm) from Water's Corporation (Milford, MA). Buffer A and B consisted of acetonitrile/ethanol/water (165/135/700, v/v/v) and acetonitrile/ethanol/water (539/441/20, v/v/v), respectively. The LC gradient ran at 0.3 ml/min as follows: 0-1 min, 0% B; at 30 min, 99% B; at 35 min, 99% B; at 37 min, 0% B. Negative polarity ESI was used with gas temperature of 325° C., gas flow at 10 L/min, nebulizer pressure at 30 psi, sheath gas temperature of 250° C., sheath gas flow at 7 L/min, capillary voltage at 4000V, nozzle voltage at 1500 V, and an electron multiplier voltage of −300 V. All data were evaluated with Agilent MassHunter Qualitative Analysis software, versionB.01.06.

MCP-1 = assay: Multiplex cytokine assay in colon homogenates: MCP-1; type: in vivo, male Balb/c mice; settings: AOM/DSS-treated mice, vs control diet
Description: (§1) Colon tissues were homogenized with POLYTRON® homogenizer (Kinematica AG, Switzerland) on ice in the lysis buffer consisting of 150 mM NaCl, 1 mM EDTA (pH 8.0), 20 mM Tris (pH 7.5), 0.5% Tween 20, 10 uM indomethacin (Cayman), and 1× protease inhibitor cocktail (Sigma). Protein concentrations in tissue homogenates were quantified by BCA assay. The concentrations of selected cytokines were analyzed using a Mouse Cytokine Array Proinflammatory Focused 10-Plex Discovery Assay by Eve Technologies (Calgary, AB Canada). The 10-Plex Discovery Assay includes IFNγ, IL-1β, GM-CSF, IL-2, IL-4, IL-6, IL-10, IL-12p70, MCP-1 and TNFα.
(§2) Tumor multiplicity and log transformed tumor area were analyzed by Kruskal-Wallis followed by Mann-Whitney test. Vitamin E and metabolites were compared using Student's t test. For cytokine data, Mann-Whitney test was used to compare two groups including AD vs. non-AD, AD vs. δTE, and AD vs. δTE-13′. PAST 3.24 was used for analysis of Spearman correlation among cytokines and multiple factors. For correlation analysis of gut microbiota and δTE-13′, Spearman correlation tests were performed using RStudio 1.1.456 and adjusted with Benjamini-Hochberg correction to control the false discovery rate for multiple testing. Other statistical analyses are described in figure captions.

GM-CSF = assay: Multiplex cytokine assay in colon homogenates: GM-CSF; type: in vivo, male Balb/c mice; settings: AOM/DSS-treated mice, vs control diet
Description: as §1, §2

[2] = Body weight, food intake and organ weight during supplementation; type: in vivo, male Balb/c mice; settings: supplementation for more than two months
Description: The animal use protocol was approved by the Animal Care and Use Committee at Purdue University. After one-weck adaptation, 6-7 weck old male Balb/c mice from Harlan, (Indianapolis, IN) were i.p. injected with AOM at 9.5 mg/kg body weight. A week later, AOM-injected mice were randomized into AIN-93G (control), δTE-supplemented and δTE-13′-supplemented groups. Meanwhile, mice were given 1.5% DSS in drinking water for 1 week. The DSS cycle was repeated after a two-week interval (design outlined in FIG. 1C). During DSS treatment, we evaluated colitis severity by monitoring body weight, food intake, rectal bleeding and stool consistency. Clinical colitis scores were quantified as follows: bleeding, 0=no blood, 1=feces with blood less than 50%, 2=feces with blood more than 50% but less than 100%, and 3=feces with full blood; stool softness, 0=hard, 1=a bit soft, 2=soft, and 3=very soft.

[3] = tested on: AOM/DSS-induced colon tumorigenesis; settings: 0.022% diet; previous study; cited from earlier work
[4] = tested on: AOM/DSS-induced colon tumorigenesis; assay: AOM/DSS-induced colon tumorigenesis in mice; type: in vivo, male Balb/c mice; settings: AOM/DSS-treated mice; δTE/γTE (8/1) 0.035% diet or δTE-13′ 0.04% diet
Description: FIG. 1 illustrates (A) The chemical structures of δTE, γTE and δTE-13′; (B) Metabolism of δTE and δTE-13′; and (C) The study design of AOM/DSS model in mice-Six-seven-week old male Balb/c mice were i.p. injected with AOM at 9.5 mg/kg body weight. A week later, AOM-injected mice were randomized into AIN-93G (control), δTE-supplemented and δTE-13′-supplemented groups. Meanwhile, mice were given 1.5% DSS in drinking water for 1 week. The DSS cycle was repeated after a two-week interval.
δTE-13′ (>92%) used in animal studies was isolated from Garcinia kola seeds based on published procedures. See Jang Y, Park N Y, Rostgaard-Hansen A L, Huang J, Jiang Q. Vitamin E metabolite 13′-carboxychromanols inhibit pro-inflammatory enzymes, induce apoptosis and autophagy in human cancer cells by modulating sphingolipids and suppress colon tumor development in mice. Free Radical Biology & Medicine. 2016;95:190-9. Azoxymethane (AOM) was purchased from Sigma and dextran sodium sulfate (DSS, Mw36,000-50,000 Da) was from MP Biochemicals (Solon, OH). δTE/γTE (8/1) was a gift from American River Nutrition (Hadley, MA). AIN-93G diet was used as the control diet. […]
The animal use protocol was approved by the Animal Care and Use Committee at Purdue University. […] During DSS treatment, we evaluated colitis severity by monitoring body weight, food intake, rectal bleeding and stool consistency. Clinical colitis scores were quantified as follows: bleeding, 0=no blood, 1=feces with blood less than 50%, 2=feces with blood more than 50% but less than 100%, and 3=feces with full blood; stool softness, 0=hard, 1=a bit soft, 2=soft, and 3=very soft.
During tissue harvest, colons were removed, rinsed with cold PBS, cut open longitudinally, and macroscopically examined. The size and number of macroscopic tumors were measured and recorded. […]
Tumor multiplicity and log transformed tumor area were analyzed by Kruskal-Wallis followed by Mann-Whitney test. […]

[5] = ANCOM, compared with control diet in AD-treated or healthy mice
[6] = LEfSe, LDA cutoff 3.5, AOM/DSS-treated mice
[7] = fecal microbiota, AOM/DSS-treated mice, mean ± SEM

Question: With `Cc1c(C)c2c(c(C)c1O)CC[C@@](C)(CCC[C@H](C)CCC[C@H](C)CCCC(C)C)O2` [αT, α-tocopherol, reference compound] as the compound, how does the “modulatory effect on gut microbes as δTE and δTE-13′” value (gut microbiota) read?
Answer: do not share the same modulatory effect

Question: For `Cc1c(O)cc2c(c1C)O[C@](C)(CCC[C@H](C)CCC[C@H](C)CCCC(C)C)CC2` [γT, γ-tocopherol, reference compound], which “modulatory effect on gut microbes as δTE and δTE-13′” value (gut microbiota) is on record?
Answer: do not share the same modulatory effect

Question: For `C/C(=C\CC/C(C)=C/CCC1(C)CCc2cc(O)cc(C)c2O1)CC/C=C(\C)C(=O)O` (centres unmarked) [δTE-13′, δTE-13′-carboxychromanol], which “AOM/DSS-associated decrease of genus Roseburia” value (gut microbiota; ANCOM, relative abundance) is on record?
Answer: partially reversed

Question: And the “relative abundance of Streptococccaceae family” value (gut microbiota; [5])?
Answer: significantly elevated

Question: What about the “relative abundance of genus Lactococcus” value (gut microbiota; [5]) of the same compound?
Answer: significantly elevated

Question: What about the “Bacteroides (LEfSe)” value (gut microbiota; [6]) of the same compound?
Answer: enriched

Question: What about the “Parabacteroides goldsteinii CL02T12C30 (LEfSe)” value (gut microbiota; [6]) of the same compound?
Answer: enriched

Question: And the “ratio of Firmicutes to Bacteroidetes in feces” value (gut microbiota; compared with healthy controls)?
Answer: appeared to decrease

Question: And the “alpha diversity: Evenness” value (gut microbiota; [7])?
Answer: 0.81 ± 0.01^b

Question: What about the “alpha diversity: Faith PD” value (gut microbiota; [7]) of the same compound?
Answer: 10.42 ± 0.24^a

Question: What about the “alpha diversity: Observed OTU” value (gut microbiota; [7]) of the same compound?
Answer: 177.06 ± 8.75^a

Question: What about the “alpha diversity: Shannon” value (gut microbiota; [7]) of the same compound?
Answer: 6.05 ± 0.07^a

Question: What about the “parental compound in the plasma” value ([1]; δTE-13′ supplementation) of the same compound?
Answer: did not result in detectable amount

Question: And the “δTE-13′ with 3 DB (the parental compound) in feces” value ([1]; δTE-13′ supplementation)?
Answer: increased

Question: What about the “fecal δTE-13′ with 2 DB relative to that from δTE” value ([1]; δTE-13′ vs δTE supplementation) of the same compound?
Answer: significantly higher

Question: What about the “plasma concentrations of metabolites relative to those from δTE” value ([1]; δTE-13′ vs δTE supplementation) of the same compound?
Answer: about twice as much

Question: And the “AOM/DSS-induced MCP-1 in colon homogenates” value (MCP-1)?
Answer: significant reduction

Question: What about the “AOM/DSS-induced GM-CSF in colon homogenates” value (GM-CSF) of the same compound?
Answer: significant reduction

Question: And the “effect on animals' body weight” value [2]?
Answer: did not affect

Question: What about the “effect on food intake” value [2] of the same compound?
Answer: did not affect

Question: What about the “effect on organ weight” value [2] of the same compound?
Answer: did not affect

Question: And the large-size tumor multiplicity [3]?
Answer: significantly suppressed

Question: And the total tumor multiplicity [3]?
Answer: significantly suppressed

Question: And the “decrease of large size (>2 mm^2) polyps compared with control diet” value [4]?
Answer: 55%

Question: And the “decrease of total polyps (total tumor multiplicity) compared with control diet” value [4]?
Answer: 25%

Question: What about the “decrease of tumor surface area” value [4] of the same compound?
Answer: 38%
